Measurements: ChEMBL document CHEMBL5726294, “Derivatives of 6-(2,3-dichlorophenyl)-1,2,4-triazin-5-amine” (2019)
Where “and” joins values, the source holds several entries; their conditions need not be identical. Equal entries are not always repeated.

How the values were obtained:
[1] = target: T1, Sodium channel protein type 9 subunit alpha (Homo sapiens, UniProt Q15858); assay: (§1) Ex-Vivo Potencies in Inactivated state: The potencies of the compounds provided herein to block specific Na+ channels was measured using automated patch clamp electrophysiologically of Nav1.7 sodium channels (human SCN9A gene) stably expressed in CHO cells using the IonWorks Barracuda system. Currents were measured from the whole cell patch configuration. From a holding potential of −90 mV, membranes were subjected to a 200 ms pre-pulse to −120 mV, then pulsed to 0 mV to measure blockade of the tonic (resting) state. Inactivated state block was elicited by repolarization to −100 mV (20 ms pulse duration), followed by depolarization to 0 mV (20 ms pulse duration). Peak inward Na+ currents were measured in the presence of vehicle or various concentrations of the test compound to determine the percent block of current.; type: cell-based
T1 sequence (Q15858 whole entry): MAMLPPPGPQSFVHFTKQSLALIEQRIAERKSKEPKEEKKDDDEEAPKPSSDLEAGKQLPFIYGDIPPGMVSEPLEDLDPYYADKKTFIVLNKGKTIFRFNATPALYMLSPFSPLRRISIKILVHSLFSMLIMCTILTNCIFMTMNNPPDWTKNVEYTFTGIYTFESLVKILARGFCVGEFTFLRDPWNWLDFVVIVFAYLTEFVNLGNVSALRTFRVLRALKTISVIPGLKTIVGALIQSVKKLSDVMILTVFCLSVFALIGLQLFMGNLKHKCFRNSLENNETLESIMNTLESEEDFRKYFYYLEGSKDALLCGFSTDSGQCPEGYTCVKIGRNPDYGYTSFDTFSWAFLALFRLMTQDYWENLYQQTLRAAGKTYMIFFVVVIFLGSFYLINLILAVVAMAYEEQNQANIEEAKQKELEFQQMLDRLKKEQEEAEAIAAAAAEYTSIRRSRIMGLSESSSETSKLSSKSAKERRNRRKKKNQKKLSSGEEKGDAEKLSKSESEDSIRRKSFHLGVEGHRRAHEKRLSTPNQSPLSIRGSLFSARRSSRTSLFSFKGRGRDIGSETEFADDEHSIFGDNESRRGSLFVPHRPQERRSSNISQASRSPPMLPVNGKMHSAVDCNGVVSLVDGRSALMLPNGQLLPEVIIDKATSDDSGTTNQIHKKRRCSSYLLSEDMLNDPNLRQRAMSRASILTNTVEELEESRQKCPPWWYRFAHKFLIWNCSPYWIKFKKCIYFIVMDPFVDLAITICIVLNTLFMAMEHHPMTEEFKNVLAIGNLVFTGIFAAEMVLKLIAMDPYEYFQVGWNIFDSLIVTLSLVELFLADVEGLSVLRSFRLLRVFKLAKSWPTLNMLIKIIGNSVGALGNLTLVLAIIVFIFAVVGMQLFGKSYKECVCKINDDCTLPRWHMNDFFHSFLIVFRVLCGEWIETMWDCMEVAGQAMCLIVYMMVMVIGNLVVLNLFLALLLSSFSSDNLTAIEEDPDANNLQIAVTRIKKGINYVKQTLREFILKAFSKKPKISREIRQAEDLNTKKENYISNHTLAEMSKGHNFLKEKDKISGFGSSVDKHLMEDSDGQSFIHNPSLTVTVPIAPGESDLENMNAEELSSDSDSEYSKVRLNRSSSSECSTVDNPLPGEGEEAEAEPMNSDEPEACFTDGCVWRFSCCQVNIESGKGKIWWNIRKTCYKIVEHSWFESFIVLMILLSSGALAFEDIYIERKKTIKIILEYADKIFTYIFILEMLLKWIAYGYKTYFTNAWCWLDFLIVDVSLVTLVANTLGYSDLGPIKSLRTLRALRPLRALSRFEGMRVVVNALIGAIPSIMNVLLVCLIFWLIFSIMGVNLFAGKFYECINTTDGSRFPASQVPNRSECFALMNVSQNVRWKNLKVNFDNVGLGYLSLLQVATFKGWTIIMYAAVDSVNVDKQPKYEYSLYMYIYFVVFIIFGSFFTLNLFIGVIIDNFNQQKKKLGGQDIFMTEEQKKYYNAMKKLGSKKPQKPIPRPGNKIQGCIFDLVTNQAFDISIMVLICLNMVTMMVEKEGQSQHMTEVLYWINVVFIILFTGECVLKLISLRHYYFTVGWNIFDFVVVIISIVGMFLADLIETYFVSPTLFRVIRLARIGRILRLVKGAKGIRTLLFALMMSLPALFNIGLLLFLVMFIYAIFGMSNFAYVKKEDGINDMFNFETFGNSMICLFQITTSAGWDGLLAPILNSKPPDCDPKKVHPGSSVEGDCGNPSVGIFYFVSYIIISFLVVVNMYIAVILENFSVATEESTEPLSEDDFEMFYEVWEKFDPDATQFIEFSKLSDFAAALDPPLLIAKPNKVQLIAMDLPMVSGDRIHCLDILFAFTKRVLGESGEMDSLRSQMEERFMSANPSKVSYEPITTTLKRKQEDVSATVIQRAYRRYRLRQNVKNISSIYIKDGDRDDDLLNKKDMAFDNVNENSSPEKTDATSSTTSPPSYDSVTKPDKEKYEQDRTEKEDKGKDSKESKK

[2] = target: T1, Sodium channel protein type 9 subunit alpha; assay: as §1, with “in Tonic” for “in Inactivated”; type: cell-based

Row | SMILES | IC50 [1] | IC50 [2]
1 | COCCOCCOCCOc1ccc(-c2nnc(N)nc2N)c(Cl)c1Cl | > 300 µM | 
2 | Nc1nc(N2CCC(O)(C(F)(F)F)CC2)nnc1-c1cccc(Cl)c1Cl | 73.9 µM and 59.1 µM | > 200 µM and 165 µM
3 | COCCOCCOCC(C)Nc1nnc(-c2cccc(Cl)c2Cl)c(N)n1 (centres undefined) | < 50 µM | > 200 µM
4 | Nc1nc(N2CC(O)(C(F)(F)F)C2)nnc1-c1cccc(Cl)c1Cl | 291 µM and 249 µM | > 200 µM
5 | Nc1nc(N2CCN(C3CCNCC3)CC2)nnc1-c1cccc(Cl)c1Cl | 272 µM | > 200 µM
6 | C[C@@H]1CN(c2nnc(-c3cc(F)cc(Cl)c3Cl)c(N)n2)C[C@H](C)N1 | < 50 µM | 92.4 µM
7 | Nc1nc(N2CCNCC2)nnc1-c1cc(F)cc(Cl)c1Cl | 84.5 µM | > 200 µM
8 | COCCOCCOCCN1CCC(Nc2nnc(-c3cc(F)cc(Cl)c3Cl)c(N)n2)CC1 |  | > 200 µM
9 | Nc1nc(N2CCN[C@H](CO)C2)nnc1-c1cc(F)cc(Cl)c1Cl | 72.6 µM | > 200 µM
10 | COCCOCCOCCN1CCN(c2nnc(-c3cccc(Cl)c3Cl)c(N)n2)CC1 | 54.9 µM and < 50 µM | > 200 µM
11 | Nc1nc(N2CC(O)C2)nnc1-c1cccc(Cl)c1Cl |  | > 132 µM
12 | Nc1nc(N2CC(N)C2)nnc1-c1cccc(Cl)c1Cl | 284 µM | 
13 | Nc1nc(NCCOCCNCC(=O)O)nnc1-c1cccc(Cl)c1Cl | > 300 µM | 
14 | Nc1nc(N2CCN[C@@H](CO)C2)nnc1-c1cc(F)cc(Cl)c1Cl | 111 µM | > 200 µM
15 | COCCOCCOCC(=O)N1CCN(c2nnc(-c3cc(F)cc(Cl)c3Cl)c(N)n2)CC1 | 146 µM and 220 µM | > 200 µM
16 | Nc1nc(N2CCN[C@H](CO)C2)nnc1-c1cccc(Cl)c1Cl | 71.8 µM | > 200 µM
17 | COCCOCCOCCN(C)C1CCN(c2nnc(-c3cccc(Cl)c3Cl)c(N)n2)CC1 | < 50 µM | 92.5 µM
18 | CC(CO)Nc1nnc(-c2cccc(Cl)c2Cl)c(N)n1 (centres undefined) | 127 µM | > 200 µM
19 | Nc1nc(NC2CCNCC2)nnc1-c1cccc(Cl)c1Cl | > 300 µM | 
20 | Nc1nc(N2CCN(CC(O)CO)[C@H](CO)C2)nnc1-c1cccc(Cl)c1Cl (some centres undefined) | 293 µM and 243 µM | > 200 µM
21 | C[C@@H]1CN(c2nnc(-c3cccc(Cl)c3Cl)c(N)n2)C[C@H](C)N1 | < 50 µM | 112 µM
22 | Nc1nc(N2CCN(C3CCOCC3)CC2)nnc1-c1cccc(Cl)c1Cl | < 50 µM | 147 µM
23 | Nc1nc(N2CC(OCC(F)(F)F)C2)nnc1-c1cccc(Cl)c1Cl | > 300 µM | 
